Reference: US7138361B2, “Herbicidal heterocycles” (E. I. du Pont de Nemours and Company, priority 2000, dated 2006)

Experiments:
Type in all cases: in vivo
[1] = system: barnyardgrass (Echinochloa crus-galli); experiment: Test B flooded paddy test; settings: Rate 1000 g/ha, scale of 0 to 100 where 0 is no effect and 100 is complete control, visually evaluated after 13 to 15 days
Procedure: (§1) At the same time, plants selected from these crop and weed species and also blackgrass (Alopecurus myosuroides), wheat (Triticum aestivum) and wild oat (Avena fatua) were treated with postemergence applications of test chemicals formulated in the same manner. Plants ranged in height from 2 to 18 cm (1- to 4-leaf stage) for postemergence treatments. Plant species in the flooded paddy test consisted of rice (Oryza saliva), smallflower flatsedge (Cyperus difformis), duck salad (Heteranthera limosa) and barnyardgrass (Echinochloa crus-galli) grown to the 2-leaf stage for testing. Treated plants and controls were maintained in a greenhouse for 13 to 15 days, after which time all species were compared to controls and visually evaluated. Plant response ratings, summarized in Table B, are based on a scale of 0 to 100 where 0 is no effect and 100 is complete control. A dash (-) response means no test result.

[2] = system: duck salad (Heteranthera limosa); experiment: Test B flooded paddy test; settings: Rate 1000 g/ha, scale of 0 to 100 where 0 is no effect and 100 is complete control, visually evaluated after 13 to 15 days
Procedure: as §1

rice (Oryza saliva) [3] = experiment: Test B flooded paddy test; settings: Rate 1000 g/ha, scale of 0 to 100 where 0 is no effect and 100 is complete control, visually evaluated after 13 to 15 days
Procedure: as §1

[4] = system: smallflower flatsedge (Cyperus difformis); experiment: Test B flooded paddy test; settings: Rate 1000 g/ha, scale of 0 to 100 where 0 is no effect and 100 is complete control, visually evaluated after 13 to 15 days
Procedure: as §1

[5] = system: Surinam grass (Brachiaria decumbens); experiment: Test B postemergence; settings: 13 to 15 days
Summary of the method: (§2)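 Ratings on a 0 to 100 visual scale (100 complete control) compare treated plants with controls 13 to 15 days after application. Treatments were pre- or postemergence sprays of compound in non-phytotoxic solvent with surfactant.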

[6] = system: barnyardgrass (Echinochloa crus-galli); experiment: Test B postemergence; settings: 13 to 15 days
Summary of the method: as §2

[7] = system: blackgrass (Alopecurus myosuroides); experiment: Test B postemergence; settings: 13 to 15 days
Summary of the method: as §2

[8] = system: cocklebur (Xanthium strumarium); experiment: Test B postemergence; settings: 13 to 15 days
Summary of the method: as §2

corn (Zea mays) [9] = experiment: Test B postemergence; settings: 13 to 15 days
Summary of the method: as §2

[10] = system: crabgrass (Digitaria sanguinalis); experiment: Test B postemergence; settings: 13 to 15 days
Summary of the method: as §2

[11] = system: giant foxtail (Setaria faberii); experiment: Test B postemergence; settings: 13 to 15 days
Summary of the method: as §2

[12] = system: lambsquarters (Chenopodium album); experiment: Test B postemergence; settings: 13 to 15 days
Summary of the method: as §2

[13] = system: morning glory (Ipomoea hederacea); experiment: Test B postemergence; settings: 13 to 15 days
Summary of the method: as §2

[14] = system: pigweed (Amaranthus retroflexus); experiment: Test B postemergence; settings: 13 to 15 days
Summary of the method: as §2

[15] = system: velvetleaf (Abutilon theophrasti); experiment: Test B postemergence; settings: 13 to 15 days
Summary of the method: as §2

[16] = system: wheat (Triticum aestivum); experiment: Test B postemergence; settings: 13 to 15 days
Summary of the method: as §2

wild oat (Avena fatua) = experiment: Test B postemergence; settings: 13 to 15 days
Summary of the method: as §2

[17] = system: Surinam grass (Brachiaria decumbens); experiment: Test B preemergence
Summary of the method: as §2

[18] = system: barnyardgrass (Echinochloa crus-galli); experiment: Test B preemergence
Summary of the method: as §2

[19] = system: cocklebur (Xanthium strumarium); experiment: Test B preemergence
Summary of the method: as §2

corn (Zea mays) [20] = experiment: Test B preemergence
Summary of the method: as §2

[21] = system: crabgrass (Digitaria sanguinalis); experiment: Test B preemergence
Summary of the method: as §2

[22] = system: giant foxtail (Setaria faberii); experiment: Test B preemergence
Summary of the method: as §2

[23] = system: lambsquarters (Chenopodium album); experiment: Test B preemergence
Summary of the method: as §2

[24] = system: morning glory (Ipomoea hederacea); experiment: Test B preemergence
Summary of the method: as §2

[25] = system: pigweed (Amaranthus retroflexus); experiment: Test B preemergence
Summary of the method: as §2

rice (Oryza saliva) [26] = experiment: Test B preemergence
Summary of the method: as §2

[27] = system: velvetleaf (Abutilon theophrasti); experiment: Test B preemergence
Summary of the method: as §2

[28] = system: barnyardgrass (Echinochloa crus-galli); experiment: Test C flooded paddy test; settings: for Barnyardgrass plant response rating: Flooded Paddy, scale 0 to 100, 0 no effect, 100 complete control; for Plant response rating, Barnyardgrass: flooded paddy test, scale 0 to 100 (0 no effect, 100 complete control)
Summary of the method: (§3)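 Each species was cultivated to 2 leaves in flooded paddy pots, then treated. After a greenhouse period of 12–14 days, the plants were scored visually relative to controls from 0 (no effect) to 100 (complete control).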

[29] = system: duck salad (Heteranthera limosa); experiment: Test C flooded paddy test; settings: for Ducksalad plant response rating: Flooded Paddy, scale 0 to 100, 0 no effect, 100 complete control; for Plant response rating, Ducksalad: flooded paddy test, scale 0 to 100 (0 no effect, 100 complete control)
Summary of the method: as §3

rice (Oryza saliva) [30] = experiment: Test C flooded paddy test; settings: for Rice plant response rating: Flooded Paddy, scale 0 to 100, 0 no effect, 100 complete control; for Plant response rating, Rice: flooded paddy test, scale 0 to 100 (0 no effect, 100 complete control)
Summary of the method: as §3

[31] = system: smallflower flatsedge (Cyperus difformis); experiment: Test C flooded paddy test; settings: for Flatsedge plant response rating: Flooded Paddy, scale 0 to 100, 0 no effect, 100 complete control; for Plant response rating, Flatsedge: flooded paddy test, scale 0 to 100 (0 no effect, 100 complete control)
Summary of the method: as §3

[32] = Rate 125 g/ha, scale 0 (no effect) to 100 (complete control)
[33] = Rate 500 g/ha, scale 0 to 100, 0 is no effect, 100 is complete control
[34] = Preemergence, Rate 500 g/ha, scale 0 to 100, 0 no effect, 100 complete control
[35] = preemergence, Rate 125 g/ha, scale 0 to 100, 0 no effect, 100 complete control
[36] = preemergence, Rate 125 g/ha, scale of 0 to 100 where 0 is no effect and 100 is complete control, 13 to 15 days

COc1cccc(N2CCC(n3ccc(C(C)(C)C)n3)C2=O)c1 (centres unmarked) [Compound 57]
Plant response rating, Barnyardgrass [1]: 100 | Plant response rating, Ducksalad [2]: 100 | Plant response rating, Rice (rice (Oryza saliva) [3]): 90 | Plant response rating, Flatsedge [4]: 100

O=C1C(n2cccn2)SCN1c1cccc(C(F)(F)F)c1 (centres unmarked) [Compound 18]
Plant response rating, Surinam grass [5, 32]: 0 | Plant response rating, Surinam grass [5, 33]: 0 | Plant response rating, Barnyardgrass [6, 32]: 0 | Plant response rating, Barnyardgrass [6, 33]: 0 | Plant response rating, Blackgrass [7, 32]: 0 | Plant response rating, Blackgrass [7, 33]: 0 | Plant response rating, Cocklebur [8, 32]: 0 | Plant response rating, Cocklebur [8, 33]: 20 | Plant response rating, Corn (corn (Zea mays) [9]; [32]): 0 | Plant response rating, Corn (corn (Zea mays) [9]; [33]): 0 | Plant response rating, Crabgrass [10, 32]: 0 | Plant response rating, Crabgrass [10, 33]: 0 | Plant response rating, Foxtail, Giant [11, 32]: 0 | Plant response rating, Foxtail, Giant [11, 33]: 0 | Plant response rating, Lambsquarters [12, 32]: 60 | Plant response rating, Lambsquarters [12, 33]: 70 | Plant response rating, Morningglory [13, 32]: 10 | Plant response rating, Morningglory [13, 33]: 10 | Plant response rating, Pigweed [14, 32]: 0 | Plant response rating, Pigweed [14, 33]: 0 | Plant response rating, Velvetleaf [15, 32]: 0 | Plant response rating, Velvetleaf [15, 33]: 20 | Plant response rating, Wheat [16, 32]: 0 | Plant response rating, Wheat [16, 33]: 0 | Plant response rating, Wild Oat (wild oat (Avena fatua); [32]): 0 | Plant response rating, Wild Oat (wild oat (Avena fatua); [33]): 0 | Plant response rating, Surinam grass [17, 34]: 0 | Plant response rating, Surinam grass [17, 35]: 0 | Plant response rating, Barnyardgrass [18, 34]: 0 | Plant response rating, Barnyardgrass [18, 35]: 0 | Plant response rating, Cocklebur [19, 34]: 0 | Plant response rating, Cocklebur [19, 35]: 0 | Plant response rating, Corn (corn (Zea mays) [20]; [34]): 0 | Plant response rating, Corn (corn (Zea mays) [20]; [35]): 0 | Plant response rating, Crabgrass [21, 34]: 0 | Plant response rating, Crabgrass [21, 35]: 0 | Plant response rating, Foxtail, Giant [22, 34]: 0 | Plant response rating, Foxtail, Giant [22, 35]: 0 | Plant response rating, Lambsquarters [23, 35]: 0 | Plant response rating, Morningglory [24, 34]: 0 | Plant response rating, Morningglory [24, 35]: 0 | Plant response rating, Pigweed [25, 34]: 0 | Plant response rating, Pigweed [25, 35]: 0 | Plant response rating, Rice (rice (Oryza saliva) [26]; [34]): 0 | Plant response rating, Rice (rice (Oryza saliva) [26]; [35]): 0 | Plant response rating, Barnyardgrass [1]: 0 | Plant response rating, Ducksalad [2]: 0 | Plant response rating, Rice (rice (Oryza saliva) [3]): 0 | Plant response rating, Flatsedge [4]: 0

CC(C)(C)c1ccn(C2CCN(c3ccc(F)c(Cl)c3)C2=O)n1 (centres unmarked) [Compound 46]
Plant response rating, Surinam grass [5, 32]: 0 | Plant response rating, Surinam grass [5, 33]: 0 | Plant response rating, Barnyardgrass [6, 32]: 0 | Plant response rating, Barnyardgrass [6, 33]: 0 | Plant response rating, Blackgrass [7, 32]: 0 | Plant response rating, Blackgrass [7, 33]: 0 | Plant response rating, Cocklebur [8, 32]: 0 | Plant response rating, Cocklebur [8, 33]: 0 | Plant response rating, Corn (corn (Zea mays) [9]; [32]): 0 | Plant response rating, Corn (corn (Zea mays) [9]; [33]): 0 | Plant response rating, Crabgrass [10, 32]: 0 | Plant response rating, Crabgrass [10, 33]: 0 | Plant response rating, Foxtail, Giant [11, 32]: 0 | Plant response rating, Foxtail, Giant [11, 33]: 0 | Plant response rating, Lambsquarters [12, 32]: 0 | Plant response rating, Lambsquarters [12, 33]: 70 | Plant response rating, Morningglory [13, 32]: 0 | Plant response rating, Morningglory [13, 33]: 0 | Plant response rating, Pigweed [14, 32]: 0 | Plant response rating, Pigweed [14, 33]: 0 | Plant response rating, Velvetleaf [15, 32]: 0 | Plant response rating, Velvetleaf [15, 33]: 0 | Plant response rating, Wheat [16, 32]: 0 | Plant response rating, Wheat [16, 33]: 0 | Plant response rating, Wild Oat (wild oat (Avena fatua); [32]): 0 | Plant response rating, Wild Oat (wild oat (Avena fatua); [33]): 0 | Plant response rating, Surinam grass [17, 34]: 0 | Plant response rating, Surinam grass [17, 36]: 0 | Plant response rating, Barnyardgrass [18, 34]: 80 | Plant response rating, Barnyardgrass [18, 36]: 0 | Plant response rating, Cocklebur [19, 34]: 0 | Plant response rating, Cocklebur [19, 36]: 0 | Plant response rating, Corn (corn (Zea mays) [20]; [34]): 0 | Plant response rating, Corn (corn (Zea mays) [20]; [36]): 0 | Plant response rating, Crabgrass [21, 34]: 0 | Plant response rating, Crabgrass [21, 36]: 0 | Plant response rating, Foxtail, Giant [22, 34]: 0 | Plant response rating, Foxtail, Giant [22, 36]: 0 | Plant response rating, Lambsquarters [23, 34]: 100 | Plant response rating, Lambsquarters [23, 36]: 100 | Plant response rating, Morningglory [24, 36]: 0 | Plant response rating, Pigweed [25, 34]: 100 | Plant response rating, Pigweed [25, 36]: 100 | Plant response rating, Rice (rice (Oryza saliva) [26]; [34]): 0 | Plant response rating, Rice (rice (Oryza saliva) [26]; [36]): 0 | Plant response rating, Velvetleaf [27, 34]: 0 | Plant response rating, Velvetleaf [27, 36]: 0 | Plant response rating, Barnyardgrass [1]: 100 | Plant response rating, Ducksalad [2]: 70 | Plant response rating, Rice (rice (Oryza saliva) [3]): 90 | Barnyardgrass plant response rating ([28]; Rate 250 g/ha): 50 | Barnyardgrass plant response rating ([28]; Rate 500 g/ha): 60 | Plant response rating, Barnyardgrass ([28]; Rate 62 g/ha): 0 | Plant response rating, Barnyardgrass ([28]; Rate 125 g/ha): 20 | Ducksalad plant response rating ([29]; Rate 250 g/ha): 20 | Ducksalad plant response rating ([29]; Rate 500 g/ha): 50 | Plant response rating, Ducksalad ([29]; Rate 62 g/ha): 0 | Plant response rating, Ducksalad ([29]; Rate 125 g/ha): 0 | Rice plant response rating (rice (Oryza saliva) [30]; Rate 250 g/ha): 0 | Rice plant response rating (rice (Oryza saliva) [30]; Rate 500 g/ha): 40 | Plant response rating, Rice (rice (Oryza saliva) [30]; Rate 62 g/ha): 0 | Plant response rating, Rice (rice (Oryza saliva) [30]; Rate 125 g/ha): 0 | Flatsedge plant response rating ([31]; Rate 250 g/ha): 90 | Flatsedge plant response rating ([31]; Rate 500 g/ha): 100 | Plant response rating, Flatsedge ([31]; Rate 62 g/ha): 80 | Plant response rating, Flatsedge ([31]; Rate 125 g/ha): 90
